Data taken from patent US9828381B2, “Substituted pyrazolopyrimidines and method of use” (AbbVie Deutschland GmbH & Co. KG, priority 2015, dated 2017).

Molecular target: GABA-B receptor (Rattus norvegicus (Rat), UniProt O88871+Q9Z0U4)
Assay: [35S]GTPgS binding assay, rat cortical membranes, in presence of EC25 GABA
Format: biochemical
Settings: rat brain cortex membranes; in presence of 1 μM GABA (EC25); positive allosteric modulation
Experimental: Preparation of Rat Brain Membranes for Native Receptor Assays
Membranes from rat brain cortex were prepared as described in detail by Olpe et al. and stored at concentrations of 1.66 mg/mL protein at −80° C. until required. (Olpe, H.-R, et al. Eur J Pharmacol 1990; 187: 27-38).
[^35S] GTPgS Binding Assay
The composition of the assay mixtures [in a final volume of 200 μL in 96-well U-bottom plates (Greiner) was as follows: 50 mM Tris-HCl buffer, pH 7.7, 10 mM MgCl2, 0.2 mM EGTA, 2 mM CaCl2, 100 mM NaCl, 20 µM guanosine 5′-diphosphate (Sigma), 0.3 nM [^35S]GTPgS (1250 Ci/mmol (PerkinElmer)), and the test compounds at increasing concentrations (from 10 nM up to […]), […] of rat cortical membranes, and a concentration of […], that has been observed in previous experiments to correspond to the EC25, a concentration that gives 25% of the maximal response of GABA. The samples were incubated at room temperature for 60 minutes on a shaker. The incubation was stopped by rapid vacuum filtration over glass-fiber filter plates (UniFilter-96 well, GF/B membrane plates, PerkinElmer) using a 96-well plate harvester (TOMTEK© Harvester). The UniFilter plate was washed five times with ice-cold wash buffer (50 mM Tris-HCl buffer, pH 7.7, 10 mM MgCl2, and 100 mM NaCl. After filtration the plate was dried for 90 minutes at 55° C. The plates were closed on the bottom with black sealing membranes, and liquid scintillation cocktail (35 μL, Betaplate Scint, PerkinElmer) was added to each well. After sealing the top of the plate, an additional incubation step of 90 minutes at room temperature followed before measuring the plate. The amount of membrane-bound [^35S]GTPgS was measured using a 96-well plate reader (Microbeta®, PerkinElmer). Nonspecific binding was measured in the presence of unlabeled 10 μM of GTPgS (Millipore) and without GABA. Basal binding was measured in the absence of 1 μM GABA, and maximal binding was measured in the presence of GABA using 1 mM GABA concentrations.
Data analysis. The concentration-response curves of compounds of the present disclosure in the presence of EC25 of GABA-B receptor agonist were generated using the GraphPad Prism® program (GraphPad Software, San Diego, Calif.). Data was normalized using basal binding as 0% and maximal binding as 100%. The curves were fitted by nonlinear regression allowing determination of EC50 values from sigmoidal dose-response curves. Each curve was performed using triplicate sample per date point and 10 concentrations.

Chain of GABA-B receptor (Q9Z0U4 17-960): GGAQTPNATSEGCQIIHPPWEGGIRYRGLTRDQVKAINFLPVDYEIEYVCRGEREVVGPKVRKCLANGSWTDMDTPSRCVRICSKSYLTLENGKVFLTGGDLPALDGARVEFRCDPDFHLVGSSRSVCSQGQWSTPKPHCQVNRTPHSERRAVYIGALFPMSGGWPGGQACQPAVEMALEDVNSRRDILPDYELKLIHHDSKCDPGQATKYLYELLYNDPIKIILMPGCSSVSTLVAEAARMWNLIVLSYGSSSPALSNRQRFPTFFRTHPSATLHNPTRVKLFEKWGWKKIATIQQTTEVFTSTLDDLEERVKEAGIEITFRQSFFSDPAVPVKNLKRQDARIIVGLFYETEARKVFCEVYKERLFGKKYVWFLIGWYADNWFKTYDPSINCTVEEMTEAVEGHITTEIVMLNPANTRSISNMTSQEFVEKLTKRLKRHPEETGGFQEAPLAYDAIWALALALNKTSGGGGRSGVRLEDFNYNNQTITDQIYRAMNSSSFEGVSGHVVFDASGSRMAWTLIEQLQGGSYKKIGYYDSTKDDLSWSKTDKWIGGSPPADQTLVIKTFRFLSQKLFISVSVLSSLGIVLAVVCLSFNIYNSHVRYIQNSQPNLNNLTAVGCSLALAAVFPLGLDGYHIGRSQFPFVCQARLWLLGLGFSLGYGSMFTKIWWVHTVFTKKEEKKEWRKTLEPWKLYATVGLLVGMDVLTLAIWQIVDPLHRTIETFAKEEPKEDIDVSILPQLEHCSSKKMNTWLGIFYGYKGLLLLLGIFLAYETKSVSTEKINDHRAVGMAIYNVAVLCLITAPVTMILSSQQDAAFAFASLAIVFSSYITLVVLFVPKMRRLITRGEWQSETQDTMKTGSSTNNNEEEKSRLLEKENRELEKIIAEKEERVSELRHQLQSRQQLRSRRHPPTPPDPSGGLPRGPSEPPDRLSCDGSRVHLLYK
Chain of GABA-B receptor (O88871 41-940): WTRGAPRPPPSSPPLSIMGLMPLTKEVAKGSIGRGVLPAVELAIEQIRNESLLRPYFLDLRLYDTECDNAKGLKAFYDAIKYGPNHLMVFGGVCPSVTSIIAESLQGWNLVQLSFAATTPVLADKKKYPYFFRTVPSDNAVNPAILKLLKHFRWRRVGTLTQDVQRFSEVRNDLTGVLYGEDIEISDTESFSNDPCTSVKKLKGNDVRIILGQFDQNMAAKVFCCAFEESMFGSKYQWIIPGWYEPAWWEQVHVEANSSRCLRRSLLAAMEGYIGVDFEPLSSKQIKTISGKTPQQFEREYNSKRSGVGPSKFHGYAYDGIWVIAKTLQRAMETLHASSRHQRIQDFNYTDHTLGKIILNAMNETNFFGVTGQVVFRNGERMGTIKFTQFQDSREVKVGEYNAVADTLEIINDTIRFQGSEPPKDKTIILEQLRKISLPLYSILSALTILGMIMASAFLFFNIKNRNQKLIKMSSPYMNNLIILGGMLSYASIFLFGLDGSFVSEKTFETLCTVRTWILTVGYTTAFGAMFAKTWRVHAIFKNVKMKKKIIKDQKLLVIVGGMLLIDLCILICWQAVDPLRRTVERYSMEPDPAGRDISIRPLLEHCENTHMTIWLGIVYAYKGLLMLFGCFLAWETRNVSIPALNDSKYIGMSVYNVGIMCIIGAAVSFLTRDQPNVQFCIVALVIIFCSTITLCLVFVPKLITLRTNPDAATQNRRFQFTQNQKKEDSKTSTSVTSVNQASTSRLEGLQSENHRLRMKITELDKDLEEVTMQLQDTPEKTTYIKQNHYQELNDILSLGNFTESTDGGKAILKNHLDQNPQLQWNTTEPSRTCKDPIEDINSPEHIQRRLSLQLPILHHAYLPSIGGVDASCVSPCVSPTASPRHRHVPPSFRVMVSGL

| EC50 [nM] | Structure (SMILES) |
| --- | --- |
| > 10000 | Cc1cc(N2CC[C@H]2C(=O)O)n2nc(C(C)c3ccc(C(F)(F)F)cc3)cc2n1 (stereo partly drawn) [Example 8-10, (2S)-1-(5-methyl-2-{1-[4-(trifluoromethyl)phenyl]ethyl}pyrazolo[1,5-a]pyrimidin-7-yl)azetidine-2-carboxylic acid] |
| 378 | Cc1cc(N2CCC(F)CC2)n2nc(C(C)c3ccc(C(F)(F)F)cc3)cc2n1 (stereo not drawn) [Example 8-11, 7-(4-fluoropiperidin-1-yl)-5-methyl-2-{1-[4-(trifluoromethyl)phenyl]ethyl}pyrazolo[1,5-a]pyrimidine] |
| 370 | Cc1cc(N2CCCC(F)C2)n2nc(C(C)c3ccc(C(F)(F)F)cc3)cc2n1 (stereo not drawn) [Example 8-12, 7-(3-fluoropiperidin-1-yl)-5-methyl-2-{1-[4-(trifluoromethyl)phenyl]ethyl}pyrazolo[1,5-a]pyrimidine] |
| 2550 | Cc1cc(N2CCNC(=O)C2CCO)n2nc(C(C)c3ccc(C(F)(F)F)cc3)cc2n1 (stereo not drawn) [Example 8-13, 3-(2-hydroxyethyl)-4-(5-methyl-2-{1-[4-(trifluoromethyl)phenyl]ethyl}pyrazolo[1,5-a]pyrimidin-7-yl)piperazin-2-one] |
| 593 | Cc1cc(NCC2CC(F)(F)C2)n2nc(C(C)c3ccc(C(F)(F)F)cc3)cc2n1 (stereo not drawn) [Example 8-14, N-[(3,3-difluorocyclobutyl)methyl]-5-methyl-2-{1-[4-(trifluoromethyl)phenyl]ethyl}pyrazolo[1,5-a]pyrimidin-7-amine] |
| 570 | Cc1cc(N2CCC(F)(F)C2)n2nc(C(C)c3ccc(C(F)(F)F)cc3)cc2n1 (stereo not drawn) [Example 8-15, 7-(3,3-difluoropyrrolidin-1-yl)-5-methyl-2-{1-[4-(trifluoromethyl)phenyl]ethyl}pyrazolo[1,5-a]pyrimidine] |
| 2180 | CC(=O)N[C@@H]1CCN(c2cc(C)nc3cc(C(C)c4ccc(C(F)(F)F)cc4)nn23)C1 (stereo partly drawn) [Example 8-16, N-[(3R)-1-(5-methyl-2-{1-[4-(trifluoromethyl)phenyl]ethyl}pyrazolo[1,5-a]pyrimidin-7-yl)pyrrolidin-3-yl]acetamide] |
| 760 | Cc1cc(N2CCCC(F)(F)C2)n2nc(C(C)c3ccc(C(F)(F)F)cc3)cc2n1 (stereo not drawn) [Example 8-17, 7-(3,3-difluoropiperidin-1-yl)-5-methyl-2-{1-[4-(trifluoromethyl)phenyl]ethyl}pyrazolo[1,5-a]pyrimidine] |
| 746 | Cc1cc(N2CCCCC2=O)n2nc(C(C)c3ccc(C(F)(F)F)cc3)cc2n1 (stereo not drawn) [Example 8-18, 1-(5-methyl-2-{1-[4-(trifluoromethyl)phenyl]ethyl}pyrazolo[1,5-a]pyrimidin-7-yl)piperidin-2-one] |
| 274 | Cc1cc(NC(C)(C)C)n2nc(C(C)c3ccc(C(F)(F)F)cc3)cc2n1 (stereo not drawn) [Example 8-19, N-tert-butyl-5-methyl-2-{1-[4-(trifluoromethyl)phenyl]ethyl}pyrazolo[1,5-a]pyrimidin-7-amine] |
| 500 | Cc1cc(NC2CC(F)(F)C2)n2nc(C(C)c3ccc(C(F)(F)F)cc3)cc2n1 (stereo not drawn) [Example 8-20, N-(3,3-difluorocyclobutyl)-5-methyl-2-{1-[4-(trifluoromethyl)phenyl]ethyl}pyrazolo[1,5-a]pyrimidin-7-amine] |
| 561 | Cc1cc(N2CCC3(CC2)COC3)n2nc(C(C)c3ccc(C(F)(F)F)cc3)cc2n1 (stereo not drawn) [Example 8-21, 5-methyl-7-(2-oxa-7-azaspiro[3.5]non-7-yl)-2-{1-[4-(trifluoromethyl)phenyl]ethyl}pyrazolo[1,5-a]pyrimidine] |
| 771 | Cc1cc(N2CCC(C(N)=O)C2)n2nc(C(C)c3ccc(C(F)(F)F)cc3)cc2n1 (stereo not drawn) [Example 8-22, 1-(5-methyl-2-{1-[4-(trifluoromethyl)phenyl]ethyl}pyrazolo[1,5-a]pyrimidin-7-yl)pyrrolidine-3-carboxamide] |
| 1540 | Cc1cc(N2CCCC(CO)C2)n2nc(C(C)c3ccc(Cl)cn3)cc2n1 (stereo not drawn) [Example 9-1, (1-{2-[1-(5-chloropyridin-2-yl)ethyl]-5-methylpyrazolo[1,5-a]pyrimidin-7-yl}piperidin-3-yl)methanol] |
| 1600 | Cc1cc(NC2CC(F)(F)C2)n2nc(C(C)c3ccc(Cl)cn3)cc2n1 (stereo not drawn) [Example 9-2, 2-[1-(5-chloropyridin-2-yl)ethyl]-N-(3,3-difluorocyclobutyl)-5-methylpyrazolo[1,5-a]pyrimidin-7-amine] |
| 2020 | Cc1cc(N2CCC[C@H](O)C2)n2nc(C(C)c3ccc(Cl)cn3)cc2n1 (stereo partly drawn) [Example 9-3, (3S)-1-{2-[1-(5-chloropyridin-2-yl)ethyl]-5-methylpyrazolo[1,5-a]pyrimidin-7-yl}piperidin-3-ol] |
| 628 | Cc1cc(N2CCCC(F)(F)C2)n2nc(C(C)c3ccc(Cl)cn3)cc2n1 (stereo not drawn) [Example 9-4, 2-[1-(5-chloropyridin-2-yl)ethyl]-7-(3,3-difluoropiperidin-1-yl)-5-methylpyrazolo[1,5-a]pyrimidine] |
| 1660 | Cc1cc(N2CCC(F)(F)C2)n2nc(C(C)c3ccc(Cl)cn3)cc2n1 (stereo not drawn) [Example 9-5, 2-[1-(5-chloropyridin-2-yl)ethyl]-7-(3,3-difluoropyrrolidin-1-yl)-5-methylpyrazolo[1,5-a]pyrimidine] |
| 798 | Cc1cc(NC(C)(C)C)n2nc(C(C)c3ccc(Cl)cn3)cc2n1 (stereo not drawn) [Example 9-6, N-tert-butyl-2-[1-(5-chloropyridin-2-yl)ethyl]-5-methylpyrazolo[1,5-a]pyrimidin-7-amine] |
| 1320 | Cc1cc(NC2(C)CC2)n2nc(C(C)c3ccc(Cl)cn3)cc2n1 (stereo not drawn) [Example 9-7, 2-[1-(5-chloropyridin-2-yl)ethyl]-5-methyl-N-(1-methylcyclopropyl)pyrazolo[1,5-a]pyrimidin-7-amine] |
| 9300 | Cc1cc(NC2CC(F)C2)n2nc(C(C)c3ccc(Cl)cn3)cc2n1 (stereo not drawn) [Example 9-8, 2-[1-(5-chloropyridin-2-yl)ethyl]-N-(3-fluorocyclobutyl)-5-methylpyrazolo[1,5-a]pyrimidin-7-amine] |
| > 10000 | Cc1cc(N2CC3(CCOCC3)C2)n2nc(C(C)c3ccc(Cl)cn3)cc2n1 (stereo not drawn) [Example 9-9, 2-[1-(5-chloropyridin-2-yl)ethyl]-5-methyl-7-(7-oxa-2-azaspiro[3.5]non-2-yl)pyrazolo[1,5-a]pyrimidine] |
| > 10000 | CC(=O)N[C@@H]1CCN(c2cc(C)nc3cc(C(C)c4ccc(Cl)cn4)nn23)C1 (stereo partly drawn) [Example 9-10, N-[(3R)-1-{2-[1-(5-chloropyridin-2-yl)ethyl]-5-methylpyrazolo[1,5-a]pyrimidin-7-yl}pyrrolidin-3-yl]acetamide] |
| > 10000 | CC(=O)N[C@H]1CCN(c2cc(C)nc3cc(C(C)c4ccc(Cl)cn4)nn23)C1 (stereo partly drawn) [Example 9-11, N-[(3S)-1-{2-[1-(5-chloropyridin-2-yl)ethyl]-5-methylpyrazolo[1,5-a]pyrimidin-7-yl}pyrrolidin-3-yl]acetamide] |
| > 10000 | Cc1cc(N2CC[C@@H](NS(C)(=O)=O)C2)n2nc(Cc3ccc(Cl)cc3)cc2n1 [Example 10-1, N-{(3R)-1-[2-(4-chlorobenzyl)-5-methylpyrazolo[1,5-a]pyrimidin-7-yl]pyrrolidin-3-yl}methanesulfonamide] |
| 3510 | Cc1cc(N2CCC[C@H](NS(C)(=O)=O)C2)n2nc(Cc3ccc(Cl)cc3)cc2n1 [Example 11-1] |
| 5670 | Cc1cc(N2CCCCC2CCO)n2nc(Cc3cccc(Cl)c3)cc2n1 (stereo not drawn) [Example 12-1, 2-{1-[2-(3-chlorobenzyl)-5-methylpyrazolo[1,5-a]pyrimidin-7-yl]piperidin-2-yl}ethanol] |
